This note sets out measurements from ChEMBL document CHEMBL3102818, “Tocopheramine succinate and tocopheryl succinate: mechanism of mitochondrial inhibition and superoxide radical production” (Bioorg Med Chem, 2014).

Activity calls are given as the source filed them. The calls are words filed in the database; no cut-off is given here. Bounds are passed on as bounds.

Series [1] concerns N18TG2. As to the kind of experiment: Induction of superoxide radical generation in mouse N18TG2 cells assessed as CMH oxidation at 200 uM after 2 hrs by ESR spectroscopy relative to control. In kind it is functional, cell-based.
The species entered for series [2] is Bos taurus. As to the kind of experiment: Induction of superoxide radical generation in bovine succinate-respiring submitochondrial particles assessed as oxidation of CPH after 2 mins by ESR spectroscopy relative to control. In kind it is functional.
Series [3] can be described thus: Inhibition of bovine mitochondrial electron transport protein complex 2 succinate:DCPIP oxidoreductase activity by spectrophotometry. The arrangement: species or system Bos taurus.
For series [4], the species on record is Bos taurus. As to the kind of experiment: (§1) Inhibition of bovine mitochondrial electron transport protein complex 3 dUQH2:cytochrome c oxidoreductase activity by spectrophotometry.
Series [5] is filed under the species Bos taurus. In words: Induction of superoxide radical generation in bovine NADH-respiring submitochondrial particles assessed as oxidation of CPH after 2 mins by ESR spectroscopy relative to control. In kind it is functional.
Series [6] can be described thus: Drug degradation in mouse N18TG2 cells assessed as alpha-TOH formation at 10 nmol after 24 hrs by HPLC analysis. In kind it is ADME, cell-based. The settings on record: n18tg2, 24 h.
Series [7] is filed under the species Bos taurus. In words: Inhibition of oxygen consumption in bovine NADH-respiring submitochondrial particles involving complexes 1,3,4 after 3 mins relative to control. In kind it is functional.
Series [8] is filed under the species Bos taurus. As to the kind of experiment: Inhibition of bovine mitochondrial electron transport protein complex 1 NADH:dUQ oxidoreductase activity by spectrophotometry.
The species named for series [9] is Bos taurus. In words: Induction of superoxide radical generation in bovine NADH-respiring submitochondrial particles assessed as oxidation of CPH at 900 uM after 2 mins by ESR spectroscopy in presence of superoxide dismutase relative to control. In kind it is functional.
Series [10] concerns Liver. As to the kind of experiment: Drug degradation in denaturated rat liver homogenates assessed as compound recovery at 500 nmol after 4 hrs by HPLC analysis. In kind it is ADME, tissue-based. The settings on record: tissue homogenate.
The test system of series [11] is Liver. In words: Drug degradation in rat liver homogenates at 500 nmol after 4 hrs by HPLC analysis. In kind it is ADME, tissue-based. The settings on record: tissue homogenate.
The species entered for series [12] is Bos taurus. As to the kind of experiment: Inhibition of oxygen consumption in bovine succinate-respiring submitochondrial particles involving complexes 2,3,4 after 3 mins relative to control. In kind it is functional.
Series [13] is filed under the species Bos taurus. As to the kind of experiment: Induction of superoxide radical generation in bovine succinate-respiring submitochondrial particles assessed as oxidation of CPH at 900 uM after 2 mins by ESR spectroscopy in presence of superoxide dismutase relative to control. In kind it is functional.
The test system of another series is HeLa. In words: Cytotoxicity against human HeLa cells at 100 to 200 uM by MTT assay. In kind it is functional, cell-based. Background: Formazan colour is commonly taken as a measure of viable cells.
A short description of series [14]: as §1. The arrangement: species or system Bos taurus.
Series [15] has as its system Liver. As to the kind of experiment: Drug degradation in rat liver homogenates assessed as alpha-TOH formation at 500 nmol after 4 hrs by HPLC analysis. In kind it is ADME, tissue-based. The settings on record: tissue homogenate.
The test system of series [16] is N18TG2. As to the kind of experiment: Cytotoxicity against mouse N18TG2 cells at 6.25 to 100 uM by MTT assay. In kind it is functional, cell-based.
Series [17] is filed under the species Bos taurus. As to the kind of experiment: Induction of superoxide radical generation in bovine succinate-respiring submitochondrial particles assessed as oxidation of CPH at 50 uM after 2 mins by ESR spectroscopy. In kind it is functional.
For series [18], the species on record is Bos taurus. As to the kind of experiment: Induction of superoxide radical generation in bovine succinate-respiring submitochondrial particles assessed as oxidation of CPH at 900 uM after 2 mins by ESR spectroscopy. In kind it is functional.
Series [19] is filed under the species Bos taurus. As to the kind of experiment: Induction of superoxide radical generation in bovine succinate-respiring submitochondrial particles assessed as oxidation of CPH at 900 uM after 2 mins by ESR spectroscopy in presence of rotenone. In kind it is functional.
Series [20] is filed under the species Bos taurus. In words: Induction of superoxide radical generation in bovine NADH-respiring submitochondrial particles assessed as oxidation of CPH at 900 uM after 2 mins by ESR spectroscopy. In kind it is functional.
A short description of series [21]: Induction of superoxide radical generation in mouse N18TG2 cells assessed as CMH oxidation at 50 uM after 2 hrs by ESR spectroscopy (reference value: 0.40 +/- 0.05 pmol/min). In kind it is functional.
The species entered for series [22] is Bos taurus. In words: Induction of superoxide radical generation in bovine succinate-respiring submitochondrial particles assessed as oxidation of CPH at 36 uM after 2 mins by ESR spectroscopy. In kind it is functional.
For series [23], the species on record is Bos taurus. As to the kind of experiment: Induction of superoxide radical generation in bovine NADH-respiring submitochondrial particles assessed as oxidation of CPH at 36 uM after 2 mins by ESR spectroscopy. In kind it is functional.
The species named for series [24] is Bos taurus. In words: Induction of superoxide radical generation in bovine succinate-respiring submitochondrial particles assessed as oxidation of CPH at 36 uM after 2 mins by ESR spectroscopy in presence of rotenone. In kind it is functional.

A word on the IC50: it is the concentration needed to halve the response being measured. As for `CC(=O)Oc1c(C)c(C)c2c(c1C)CC[C@@](C)(CCC[C@H](C)CCC[C@H](C)CCCC(C)C)O2`, the result in the series on N18TG2 [1], in the series filed under Bos taurus [2] and in the series filed under Bos taurus [5] was inactive. The IC50 in [3] was > 1000 µM. The inhibition result in the series listed under Bos taurus [4] is “Active”. Also, the Drug degradation in series [6] was 100%.
Regarding `Cc1c(C)c2c(c(C)c1NC(=O)CCC(=O)O)CC[C@@](C)(CCC[C@H](C)CCC[C@H](C)CCCC(C)C)O2`, the result with N18TG2 [1], in the series listed under Bos taurus [9], in the series filed under Bos taurus [2], in the series listed under Bos taurus [13], in the series on HeLa and in the series filed under Bos taurus [5] was inactive. For the same compound, the inhibition result in the series listed under Bos taurus [7] and in the series filed under Bos taurus [12] was “Dose-dependent effect” in each case. In addition, in the series listed under Bos taurus [8], the inhibition entry is “inactive”. For the same compound, the Stability result is recorded as “Stable” with Liver [10], “Unstable” with Liver [11], “Stable” in the series with Liver [15] and “Stable” in series [6]. Further, the IC50 in series [3] was 106 µM; in series [14], 137 µM. The result in the series on N18TG2 [16] was Active.
Consider `C=C(C)[C@H]1Cc2c(ccc3c2O[C@@H]2COc4cc(OC)c(OC)cc4[C@@H]2C3=O)O1`, for which the result in the series filed under Bos taurus [17] was Active.
For the compound `Cc1c(C)c2c(c(C)c1OC(=O)CCC(=O)O)CC[C@@](C)(CCC[C@H](C)CCC[C@H](C)CCCC(C)C)O2` [(+)-ALPHA-TOCOPHERYL SUCCINATE], the outcome in the series listed under Bos taurus [18], with N18TG2 [1], in the series listed under Bos taurus [19], in the series listed under Bos taurus [2], in the series filed under Bos taurus [20] and in the series listed under Bos taurus [5] was Active. Moreover, the result in the series with N18TG2 [16] was Active. The inhibition result in the series listed under Bos taurus [7] and in the series filed under Bos taurus [12] was “Dose-dependent effect” throughout. Also, the inhibition result in the series filed under Bos taurus [8] is “inactive”. For the same compound, the outcome in the series filed under Bos taurus [9], in the series filed under Bos taurus [13] and with HeLa was inactive. Moreover, the Stability entry is recorded as “Stable” in the series on Liver [10], “Unstable” with Liver [11], “Unstable” in the series on Liver [15] and “Unstable” in series [6]. The IC50 in series [3] was 42 µM; in series [14] it was 315 µM.
Take `CCCCCC[C@H]1C(=O)O[C@H](C)[C@H](NC(=O)c2cccc(NC=O)c2O)C(=O)O[C@@H](C)[C@@H]1OC(=O)CC(C)C` [ANTIMYCIN A]: the Activity in series [21] came to 1.2 pmol/min. Also, the outcome in the series filed under Bos taurus [22], in the series filed under Bos taurus [23] and in the series filed under Bos taurus [24] was Active.
